Laboratory results: patent publication US20080261911A1, “Uses of diphenyl/diphenylamine carboxylic acids” (priority 2006, published 2008)
Marks after values point to notes of the source that are not given here.

Experiments:
[1] = tested on: Sp protein binding to GC-rich VEGF promoter oligonucleotide; test: Gel mobility shift of nuclear extracts from Panc-1 cells with VEGF32P; assay type: cell-based; settings: nuclear extracts of Panc-1 cells treated with 50 μM for 48 hr
Experimental: Vascular endothelial growth factor and VEGFR1 oligonucleotides are synthesized and annealed, and 5 pmol aliquots are 5′-end-labeled using T4 kinase and [y-^32P]ATP. After the reaction sample was incubated 20 min on ice, and antibodies against Sp1, Sp3, and Sp4 proteins are added and incubated another 20 min on ice. Protein-DNA complexes are resolved by 5% polyacrylamide gel electrophoresis as previously described (Abdelrahim et al, 2004; Abdelrahim et al, 2005, Abdelrahim et al, submitted 2005).
Panc1 or L3.6pl cells were treated with DMSO, 50 μM tolfenamic acid or 50 μM ampiroxicam for 48 hr. Nuclear extracts from these cells were isolated, incubated with VEGF^32P and analyzed in gel mobility shift assays.
The radiolabeled oligonucleotide contained a GC-rich region (−66 to −47) from the VEGF promoter that binds Sp proteins.

[2] = tested on: VEGF-B/VEGFR1 signaling (MAPK1/2 phosphorylation); test: VEGF-B activation of MAPK in Panc-1 cells; assay type: cell-based; settings: 50 μM pretreatment for 36 hr, VEGF-B 5 or 10 min
Experimental: Cells were pretreated with DMSO, 50 μM ampiroxicam, or 50 μM tolfenamic acid for 36 hr; VEGF-B (50 ng/ml) was added for 5 or 10 min, and whole cell lysates were obtained and analyzed by Western blot. Cell migration assay (FIG. 18C). […] Immunostaining of pancreatic tumors (FIG. 18D). Pancreatic tumors from athymic nude mice treated with solvent (control), gemcitabine (50 mg/kg), or tolfenamic acid (25 and 50 mg/kg) (Dick, 1996) were stained with VEGFR1 antibodies as described below and in a previous report (Dick, 1996).
Panc-1 cells were pretreated with DMSO, 50 μM ampiroxicam, or 50 μM tolfenamic acid for 48 h, and then were treated with VEGF-B (50 ng/ml) for 5 and 10 min. MAPK phosphorylation in the various treatment groups was then determined by western immunoblot analysis as described above. For migration assays, Panc-1 cells were seeded in triplicate in six-well collagen IV coated plates and then treated with the selected non-steroidal anti-inflammatory drugs for 24 h before the scratch was made. […]
Previous studies have reported that activation of VEGFR1 by VEGF-B in pancreatic cancer cells results in enhanced phosphorylation of MAPK and increased cell migration and invasion. […] The importance of Sp protein in VEGFR1-dependent Panc-1 cell migration was determined using a cell migration assay on collagen IV-coated plates.

[3] = tested on: VEGF-B/VEGFR1 signaling (MAPK1/2 phosphorylation); test: VEGF-B activation of MAPK in L3.6pl cells; assay type: cell-based, human; settings: 50 μM pretreatment for 36 hr, VEGF-B 5 or 10 min
VEGF mRNA = VEGF mRNA levels in Panc-1 cells, semi-quantitative RT-PCR; assay type: cell-based
VEGFR1 mRNA = VEGFR1 mRNA in Panc-1 cells, semi-quantitative RT-PCR; assay type: cell-based; settings: 50 μM, 24 h
Experimental: FIGS. 17A-17D show effects of tolfenamic acid on the VEGFR1 promoter and mRNA expression. Transfection with pVEGFR1-A (FIG. 17A), pVEGFR1-B (FIG. 17B), and pVEGFR1-C (FIG. 17C). Panc-1 cells were transfected with pVEGFR1 constructs, treated with DMSO, 50 μM ampiroxicam, or 50 μM tolfenamic acid, and luciferase activity was determined as described in Materials and Methods. […] Results are shown for a single experiment and similar data was obtained in replicate experiments.

[4] = tested on: orthotopically implanted human pancreatic L3.6p1 cancer cells; test: Orthotopic pancreatic tumor model in athymic nude mice; settings: for Body Weight Median / Incidence Liver metastasis / Pancreatic Tumor Incidence (positive mice/mice injected) / Tumor Volume Median / Tumor Weight Median: thrice weekly oral from day 7, sacrificed day 35
Experimental: Median tumor volumes (FIG. 8A) and weights (FIG. 8B) in athymic nude mice treated orthotopically with L3.6pl cells, and corn oil (control), tolfenamic acid (25 and 50 mg/kg), and gemcitabine (50 mg/kg) were determined. […] Tumors from the various treatment groups were analyzed for Sp1, Sp3, Sp4, and VEGF protein expression by Western blot analysis. […] Immunostaining is shown for VEGF (FIG. 8D), and CD31 (FIG. 8E). Pancreatic tumor sections from animals treated with solvent (control), gemcitabine (50 mg/kg) and tolfenamic acid (25 and 50 mg/kg) were immunostained with VEGF and CD31 antibodies.
Male athymic nude mice (NCI-nu) are purchased from the Animal Production Area of the National Cancer Institute Frederick Cancer Research and Development Center, housed and maintained under specific pathogen-free conditions in accordance with current regulations and standards of the United States Department of Agriculture. Injection of L3.6pl cells (with greater than 90% viability is performed as previously described (Bruns et al, 1999). Seven days after implantation of tumor cells into the pancreas of each mouse, five mice are killed to confirm the presence of tumor lesions.
Mice (10 animals per treatment group) are randomized to receive one of the following treatments: (1) thrice weekly oral administrations of vehicle solution which will serve as a control group; (2) thrice weekly oral administrations of at least three non-steroidal anti-inflammatory drugs at doses of 10, 25, and 50 mg/kg/day; (3) twice weekly intraperitoneal injections of 50, 75, and 100 mg/kg/day gemcitabine alone; and (4) combinations of gemcitabine and non-steroidal anti-inflammatory drugs. Mice are sacrificed on day 35 and body weights measured. Primary tumors in the pancreas are excised, measured, weighed. For immunohistochemistry (IHC) and hematoxylin and eosin (H&E) staining procedures, one part of the tumor tissue is fixed in formalin and embedded in paraffin, and another part is embedded in TISSUE-TEK® O.C.T. compound, rapidly frozen in liquid nitrogen, and stored at −70° C. Visible liver metastases are counted with the aid of a dissecting microscope, and the tissues processed for hematoxylin and eosin staining.
Paraffin-embedded tissues are used for identification of Sp proteins, VEGFR2p27 and vascular endothelial growth factor. Tissue sections ([…] thick) are mounted on positively charged SUPERFROST slides (Fischer Scientific, Co, Houston, Tex.) and dried overnight. Sections are deparaffinized in xylene and treated with a graded series of alcohol [100, 95, and 80% ethanol (v/v) in double distilled H2O] and rehydrated in phosphate buffered saline (pH 7.5). Tissues are treated with pepsin (Biomeda) for 15 min at 37° C. and washed with phosphate buffered saline. A positive reaction is visualized by incubating the slides with stable 3,3′-diaminobenzidine for 10-20 min. Sections are rinsed with distilled water, counterstained with Gill's hematoxylin for 1 min, and mounted with UNIVERSAL MOUNT (Research Genetics). […] Tumor sample lysates are also examined by western blot analysis for the same proteins.
The potential anti-tumorigenic and anti-angiogenic activity of tolfenamic acid against pancreatic tumors was investigated in an orthotopic athymic nude mouse model. L3.6pl cells were used for this study based on their aggressive growth and production of liver metastases (Bruns et al, 1999; Dubois et al, 1998).

[5] = tolfenamic acid 50 mg/kg, p < 0.005 vs controls

## CCOC(=O)OC(C)OC1=C(C(=O)Nc2ccccn2)N(C)S(=O)(=O)c2ccccc21 (centres unmarked) [ampiroxicam]
[1]
  Sp3 and Sp1/Sp4 retarded bands with VEGF32P: retarded bands of similar intensity
[2]
  VEGF-B-induced phosphorylation of MAPK1/2: increased phosphorylation of MAPK1/2
[3]
  VEGF-B-induced phosphorylation of MAPK1/2: increased phosphorylation of MAPK1/2

## Cc1c(Cl)cccc1Nc1ccccc1C(=O)O [tolfenamic acid]
[1]
  Sp3 and Sp1/Sp4 retarded bands with VEGF32P: retarded bands were decreased
VEGF mRNA; 50 μM, 24 hours, compared to DMSO
  decrease of vascular endothelial growth factor mRNA levels: greater than 60%
VEGF mRNA; actinomycin D alone or with 50 μM tolfenamic acid, up to 4.5 hr
  VEGF mRNA stability: decreased at similar rates
VEGFR1 mRNA
  VEGFR1 mRNA levels: decreased VEGFR1 mRNA levels
[2]
  VEGF-B-induced phosphorylation of MAPK1/2: decreased phospho-MARK1/2
[3]
  VEGF-B-induced phosphorylation of MAPK1/2: decreased phospho-MARK1/2
[4]; 25 or 50 mg/kg/d
  median tumor weights and volumes: decreased median tumor weights and volumes
  percent incidence of liver metastasis: decreased the percent incidence of liver metastasis
[4]; at comparable doses
  tumor growth inhibition compared with gemcitabine: more effective than gemcitabine as a tumor growth inhibitor
[4]; compared to tumors from vehicle (corn oil) or gemcitabine-treated animals
  CD31 staining (microvessel density) in tumors: decreased staining
[4]; tolfenamic acid 25 mg/kg
  Body Weight Median: 25 g
  Incidence Liver metastasis: 1/10
  Pancreatic Tumor Incidence (positive mice/mice injected): 10/10
  Tumor Volume Median: 1732.8 mm^3
  Tumor Weight Median: 1.2 g
[4]; tolfenamic acid 50 mg/kg
  Body Weight Median: 24 g
  Incidence Liver metastasis: 1/10
  Pancreatic Tumor Incidence (positive mice/mice injected): 10/10
[4]; [5]
  Tumor Volume Median: 348.8^c mm^3
  Tumor Weight Median: 0.4^c g
[4]; tolfenamic acid 25 and 50 mg/kg
  immunostaining for vascular endothelial growth factor in tumor sections: decreased staining
[4]; tolfenamic acid 25 and 50 mg/kg, gemcitabine 50 mg/kg and solvent as comparison
  VEGFR1 staining of tumor tissue: decreased VEGFR1 expression only in tumors from tolfenamic acid-treated mice
[4]; tolfenamic acid versus corn oil control-treated animals
  expression of Sp1, Sp3, Sp4 and vascular endothelial growth factor in pancreatic tumors, Western blot: significantly decreased expression of Sp1, Sp3, Sp4 and vascular endothelial growth factor
